Data as given in patent publication US11883821B2, “Fluidic device for the detection, capture, or removal of a disease material” (Vanderbilt University, priority 2016, dated 2024).

Legend:
[1] = system: Acinetobacter baumannii 'Patient 2'; assay: Colistin MIC by standard agar dilution; format: cell-based; settings: colistin-resistant isolate
Procedure: Bacterial cultures (i.e., Acinetobacter baumannii ATCC17978, Colistin-resistant Acinetobacter baumannii 19606R^41. Colistin-resistant Acinetobacter baumannii-Patient 2′. Klebsiella pneumoniae ATCC700603. Bacillus subtilis 1A578 (Bacillus Genetic Stock Center), Staphylococcus aureus ATCC29213) were plated on LB agar (Sigma-Aldrich, Lot #SLBR1403V) and grown overnight at 37° C. Single colonies of each strain were then inoculated in LB broth (IX) (Gibco, Lot #1803272) and grown at 37° C. for 18 hours shaking at 150 rpm. Cell concentrations were measured with OD595 spectrometry (Infinite F500. Tecan).
Colistin minimum inhibitory concentrations (MIC) of bacterial strains were confirmed by standard agar dilution methods. Results were interpreted according to the Clinical and Laboratory Standards Institute susceptibility breakpoints.

red blood cell = format: cell-based, human
Procedure: This process was repeated for the PEGylated device. Red blood cell lysis was then analyzed to determine release of free hemoglobin in plasma. Plasma hemoglobin was measured by according to well-established protocols. Following passage through the device, the blood samples were centrifuged (500×g) and the supernatant was spectrophotometrically analyzed for hemoglobin release using a plate-reader (Tecan, Infinite M1000 Pro) at 451 nm in order to determine percent hemolysis relative to the Triton-X positive control. Triton X-100 (Sigma-Aldrich) was diluted in diH2O to result in a 20 v/v % Triton-X detergent concentration, which served as the positive control. The negative control used was EDTA-anticoagulated whole, human blood that was not flowed through a double spiral microfluidic device (i.e. untreated). Percent of hemoglobin release was calculated according to the following equation: Hemoglobin release (%)=[(Sample451nm−Negative control451nm=)/(Positive control451nm−Negative control451nm)]×100%. Complete blood counts of each sample (i.e. untreated, colistinated device, PEGylated device) were performed by the Vanderbilt University Translational Pathology Shared Resource Core.

Substance: Colistin
- Colistin MIC [1]: >256 µg/mL

Substance: Triton X-100 [Positive control (20 v/v % Triton-X)]
- Hemolysis (%) (red blood cell): 100% ± 3.08%
